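Results reflect a 48-hour exposure of cells in 96-well plates to compound at five concentrations. Abbreviation: GI50, concentration required for 50% inhibition of growth.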 Calls of active or inactive are those of the source. Cut-off read from the data, not from the text of the source: active = GI50 up to about 1.1 µM and inactive = higher.
Legend:
Assay in all cases: inhibition of tumour cell growth, NCI panel, 48 h
UACC-257 = test system: UACC-257
KM12 = test system: KM12
MCF7 = test system: MCF7
EKVX = test system: EKVX
T47D = test system: T47D
NCI-H522 = test system: NCI-H522
SK-MEL-28 = test system: SK-MEL-28
NCI-H460 = test system: NCI-H460
SN12C = test system: SN12C
MDA-MB-231 = test system: MDA-MB-231
SF-268 = test system: SF-268
Malme-3M = test system: Malme-3M
MDA-MB-435 = test system: MDA-MB-435
Hs-578T = test system: Hs-578T
SW-620 = test system: SW-620
UACC-62 = test system: UACC-62
786-0 = test system: 786-0
DU-145 = test system: DU-145
CCRF-CEM = test system: CCRF-CEM
SK-MEL-2 = test system: SK-MEL-2
RXF 393 = test system: RXF 393
NCI-H23 = test system: NCI-H23
COLO 205 = test system: COLO 205
HCT-116 = test system: HCT-116
A549 = test system: A549
OVCAR-5 = test system: OVCAR-5
PC-3 = test system: PC-3
HCC 2998 = test system: HCC 2998
MDA-N = test system: MDA-N
SF-539 = test system: SF-539
ACHN = test system: ACHN
SNB-75 = test system: SNB-75
SK-OV-3 = test system: SK-OV-3
OVCAR-3 = test system: OVCAR-3
TK-10 = test system: TK-10
SF-295 = test system: SF-295
A498 = test system: A498
OVCAR-4 = test system: OVCAR-4
IGROV-1 = test system: IGROV-1
BT-549 = test system: BT-549
HL-60 = test system: HL-60
HOP-92 = test system: HOP-92
U-251 = test system: U-251
M14 = test system: M14
CAKI-1 = test system: CAKI-1
LOX IMVI = test system: LOX IMVI
SK-MEL-5 = test system: SK-MEL-5
SNB-19 = test system: SNB-19
SR = test system: SR
HOP-62 = test system: HOP-62
HCT-15 = test system: HCT-15
HT-29 = test system: HT-29
UO-31 = test system: UO-31
NCI/ADR-RES = test system: NCI/ADR-RES
K562 = test system: K562
MOLT-4 = test system: MOLT-4
OVCAR-8 = test system: OVCAR-8
RPMI-8226 = test system: RPMI-8226
NCI-H226 = test system: NCI-H226

## CC1(C)N=C(N)N=C(N)N1c1cccc(Cl)c1
UACC-257
  GI50: 5.56 µM (inactive)
KM12
  GI50: 7.98 µM (inactive)
MCF7
  GI50: 4.6 µM (inactive)
EKVX
  GI50: > 100 µM (inactive)
T47D
  GI50: > 100 µM (inactive)
NCI-H522
  GI50: 5.87 µM (inactive)
SK-MEL-28
  GI50: > 100 µM (inactive)
NCI-H460
  GI50: 1.43 µM (inactive)
SN12C
  GI50: 10.3 µM (inactive)
MDA-MB-231
  GI50: 61.8 µM (inactive)
SF-268
  GI50: 1.14 µM (inactive)
Malme-3M
  GI50: 9.82 µM (inactive)
MDA-MB-435
  GI50: 0.604 µM (active)
Hs-578T
  GI50: > 100 µM (inactive)
SW-620
  GI50: > 100 µM (inactive)
UACC-62
  GI50: 2.88 µM (inactive)
786-0
  GI50: 0.585 µM (active)
DU-145
  GI50: 17.4 µM (inactive)
CCRF-CEM
  GI50: 3.76 µM (inactive)
SK-MEL-2
  GI50: > 100 µM (inactive)
RXF 393
  GI50: > 100 µM (inactive)
NCI-H23
  GI50: 3.22 µM (inactive)
COLO 205
  GI50: 5.35 µM (inactive)
HCT-116
  GI50: 0.461 µM (active)
A549
  GI50: 2.41 µM (inactive)
OVCAR-5
  GI50: 9.12 µM (inactive)
PC-3
  GI50: > 100 µM (inactive)
HCC 2998
  GI50: 14 µM (inactive)
MDA-N
  GI50: 0.49 µM (active)
SF-539
  GI50: 4.66 µM (inactive)
ACHN
  GI50: 5.21 µM (inactive)
SNB-75
  GI50: 25.6 µM (inactive)
SK-OV-3
  GI50: > 100 µM (inactive)
OVCAR-3
  GI50: 22.4 µM (inactive)
TK-10
  GI50: 91.2 µM (inactive)
SF-295
  GI50: 1.83 µM (inactive)
A498
  GI50: > 100 µM (inactive)
OVCAR-4
  GI50: > 100 µM (inactive)
IGROV-1
  GI50: 4.93 µM (inactive)
BT-549
  GI50: 6.71 µM (inactive)
HL-60
  GI50: > 100 µM (inactive)
HOP-92
  GI50: 42.5 µM (inactive)
U-251
  GI50: 1.36 µM (inactive)
M14
  GI50: 0.877 µM (active)
CAKI-1
  GI50: > 100 µM (inactive)
LOX IMVI
  GI50: 2.54 µM (inactive)
SK-MEL-5
  GI50: 22.4 µM (inactive)
SNB-19
  GI50: > 100 µM (inactive)
SR
  GI50: 1.73 µM (inactive)
HOP-62
  GI50: 4.85 µM (inactive)
HCT-15
  GI50: 10.5 µM
HT-29
  GI50: 0.785 µM (active)
UO-31
  GI50: 15.5 µM (inactive)
NCI/ADR-RES
  GI50: 0.681 µM (active)
K562
  GI50: 3.66 µM (inactive)

## COP(=O)(/C=C/c1cc(C(=O)OCc2ccccc2)n(S(=O)(=O)c2ccccc2)c1)OC
UACC-257
  GI50: > 100 µM (inactive)
KM12
  GI50: > 100 µM (inactive)
MCF7
  GI50: > 100 µM (inactive)
EKVX
  GI50: > 100 µM (inactive)
T47D
  GI50: > 100 µM (inactive)
NCI-H522
  GI50: > 100 µM (inactive)
SK-MEL-28
  GI50: > 100 µM (inactive)
MOLT-4
  GI50: > 100 µM (inactive)
NCI-H460
  GI50: > 100 µM (inactive)
SN12C
  GI50: > 100 µM (inactive)
MDA-MB-231
  GI50: > 100 µM (inactive)
SF-268
  GI50: > 100 µM (inactive)
Malme-3M
  GI50: > 100 µM (inactive)
MDA-MB-435
  GI50: > 100 µM (inactive)
Hs-578T
  GI50: > 100 µM (inactive)
SW-620
  GI50: > 100 µM (inactive)
UACC-62
  GI50: > 100 µM (inactive)
786-0
  GI50: > 100 µM (inactive)
DU-145
  GI50: > 100 µM (inactive)
CCRF-CEM
  GI50: > 100 µM (inactive)
SK-MEL-2
  GI50: > 100 µM (inactive)
RXF 393
  GI50: > 100 µM (inactive)
NCI-H23
  GI50: > 100 µM (inactive)
COLO 205
  GI50: > 100 µM (inactive)
HCT-116
  GI50: > 100 µM (inactive)
A549
  GI50: > 100 µM (inactive)
OVCAR-5
  GI50: > 100 µM (inactive)
PC-3
  GI50: > 100 µM (inactive)
HCC 2998
  GI50: > 100 µM (inactive)
MDA-N
  GI50: > 100 µM (inactive)
SF-539
  GI50: > 100 µM (inactive)
ACHN
  GI50: > 100 µM (inactive)
SNB-75
  GI50: 57.1 µM (inactive)
SK-OV-3
  GI50: > 100 µM (inactive)
OVCAR-3
  GI50: > 100 µM (inactive)
TK-10
  GI50: > 100 µM (inactive)
SF-295
  GI50: > 100 µM (inactive)
A498
  GI50: > 100 µM (inactive)
OVCAR-4
  GI50: > 100 µM (inactive)
IGROV-1
  GI50: > 100 µM (inactive)
BT-549
  GI50: > 100 µM (inactive)
HL-60
  GI50: > 100 µM (inactive)
U-251
  GI50: > 100 µM (inactive)
M14
  GI50: > 100 µM (inactive)
CAKI-1
  GI50: > 100 µM (inactive)
LOX IMVI
  GI50: > 100 µM (inactive)
SK-MEL-5
  GI50: > 100 µM (inactive)
SNB-19
  GI50: > 100 µM (inactive)
SR
  GI50: > 10 µM (inactive)
HOP-62
  GI50: > 100 µM (inactive)
HCT-15
  GI50: > 100 µM
HT-29
  GI50: > 100 µM (inactive)
UO-31
  GI50: > 100 µM (inactive)
NCI/ADR-RES
  GI50: > 100 µM (inactive)
K562
  GI50: > 100 µM (inactive)
OVCAR-8
  GI50: > 100 µM (inactive)

## Cc1cc2ccc(OC(=O)c3ccc(NC(=N)N)cc3)cc2oc1=O
RPMI-8226
  GI50: 22.2 µM (inactive)
UACC-257
  GI50: 35.2 µM (inactive)
KM12
  GI50: 21.7 µM (inactive)
MCF7
  GI50: 22.1 µM (inactive)
EKVX
  GI50: 30.5 µM (inactive)
T47D
  GI50: 26.8 µM (inactive)
NCI-H522
  GI50: 18.3 µM (inactive)
SK-MEL-28
  GI50: 24 µM (inactive)
MOLT-4
  GI50: 22.9 µM (inactive)
NCI-H460
  GI50: 31.4 µM (inactive)
SN12C
  GI50: 23.6 µM (inactive)
MDA-MB-231
  GI50: 22 µM (inactive)
SF-268
  GI50: 25.2 µM (inactive)
Malme-3M
  GI50: 22 µM (inactive)
MDA-MB-435
  GI50: 20 µM (inactive)
Hs-578T
  GI50: 25.9 µM (inactive)
SW-620
  GI50: 24.7 µM (inactive)
UACC-62
  GI50: 26.9 µM (inactive)
786-0
  GI50: 25.1 µM (inactive)
DU-145
  GI50: 76.9 µM (inactive)
CCRF-CEM
  GI50: 30.5 µM (inactive)
SK-MEL-2
  GI50: 25.4 µM (inactive)
RXF 393
  GI50: 33.3 µM (inactive)
NCI-H23
  GI50: 21.3 µM (inactive)
COLO 205
  GI50: 23.7 µM (inactive)
HCT-116
  GI50: 24.1 µM (inactive)
A549
  GI50: 36.2 µM (inactive)
OVCAR-5
  GI50: 34.3 µM (inactive)
PC-3
  GI50: 28.6 µM (inactive)
MDA-N
  GI50: 29.2 µM (inactive)
SF-539
  GI50: 24.5 µM (inactive)
ACHN
  GI50: > 100 µM (inactive)
SNB-75
  GI50: 23.3 µM (inactive)
SK-OV-3
  GI50: 19.1 µM (inactive)
OVCAR-3
  GI50: 16.5 µM (inactive)
TK-10
  GI50: 22.5 µM (inactive)
SF-295
  GI50: 46.5 µM (inactive)
A498
  GI50: 21.2 µM (inactive)
OVCAR-4
  GI50: 16.6 µM (inactive)
NCI-H226
  GI50: 26.4 µM (inactive)
IGROV-1
  GI50: 55 µM (inactive)
BT-549
  GI50: 26.3 µM (inactive)
HL-60
  GI50: 5.93 µM (inactive)
HOP-92
  GI50: 41.6 µM (inactive)
U-251
  GI50: 21.6 µM (inactive)
M14
  GI50: 28.8 µM (inactive)
CAKI-1
  GI50: 43.5 µM (inactive)
LOX IMVI
  GI50: 30.8 µM (inactive)
SK-MEL-5
  GI50: 43.8 µM (inactive)
SNB-19
  GI50: 22.2 µM (inactive)
SR
  GI50: 22.5 µM (inactive)
HOP-62
  GI50: 18.7 µM (inactive)
HCT-15
  GI50: > 100 µM
HT-29
  GI50: 26.6 µM (inactive)
UO-31
  GI50: 52.4 µM (inactive)
NCI/ADR-RES
  GI50: > 100 µM (inactive)
K562
  GI50: 25.6 µM (inactive)
OVCAR-8
  GI50: 33.3 µM (inactive)

From ChEMBL document CHEMBL1201862, “PubChem BioAssay data set” (2004)
